In US8778963B2, “Hydroxylamine and oxime substituted imidazoquinolines, imidazopyridines, and imidazonaphthyridines” (3M Innovative Properties Company, priority 2003, dated 2014):
Where a name gives a salt, the structure may show the parent alone.

Structure (SMILES) | melting point
CCCc1nc2c(N)nc3cccnc3c2n1CCCCN(OC)C(=O)NC(C)C [Example 3, N-[4-(4-Amino-2-propyl-1H-imidazo[4,5-c][1,5]naphthyridin-1-yl)butyl]-N′-isopropyl-N-methoxyurea] | 161 to 162 °C
CCCCc1nc2c(N)nc3ccccc3c2n1CCCC(=NOC)c1ccccc1 [Example 29, 4-(4-Amino-2-butyl-1H-imidazo[4,5-c]quinolin-1-yl)-1-phenylbutan-1-one O-methyloximie] | 198 to 200 °C
CCCc1nc2c(N)nc3cc(-c4ccccc4)ccc3c2n1CCCC(C)N(OC)C(=O)NC(C)C (stereo not shown) [Example 18, 1-[4-(4-Amino-7-phenyl-2-propyl-1H-imidazo[4,5-c]quinolin-1-yl)-1-methylbutyl]-3-isopropyl-1-methoxyurea] | 101 to 103 °C
CCOCc1nc2c(N)nc3ccccc3c2n1C/C(CC)=N/OC [Example 48, 1-[4-Amino-2-(ethoxymethyl)-1H-imidazo[4,5-c]quinolin-1-yl]butan-2-one O-methyloxime] | 175 to 178 °C
CC(CCCn1c(C)nc2c(N)nc3ccccc3c21)=NOCc1ccccc1 [Example 31, 5-(4-Amino-2-methyl-1H-imidazo[4,5-c]quinolin-1-yl)pentan-2-one O-benzyloxime] | 146 to 148 °C
CCOCc1nc2c(N)nc3cccnc3c2n1CCCCN(OC)C(C)=O [Example 20, N-[4-(4-amino-2-ethoxymethyl-1H-imidazo[4,5-c][1,5]naphthyridin-1-yl)butyl]-N-Methoxyacetamide] | 180 to 181 °C
CCCc1nc2c(N)nc(C)c(C)c2n1CCCCN(O)C(=O)c1ccccc1 [Example 25, N-Hydroxy-N-[4-(4-amino-6,7-dimethyl-2-propyl-1H-imidazo[4,5-c]pyridin-1-yl)-butyl]benzamide] | 132 to 134 °C
CON(CCCCn1c(C)nc2c(N)nc3ccccc3c21)S(C)(=O)=O [Example 47, N-[4-(4-Amino-2-methyl-1H-imidazo[4,5-c]quinolin-1-yl)butyl]-N-methoxymethanesulfonamide] | 201 to 203 °C
CCCc1nc2c(N)nc(C)c(C)c2n1CCC/C(C)=N/OC [Example 5, 5-(4-Amino-6,7-dimethyl-2-propyl-1H-imidazo[4,5-c]pyridine-1-yl)pentan-2-one O-methyloxime] | 144 to 145.5 °C
CCCCc1nc2c(N)nc3ccccc3c2n1CCC/C=N/OC [Example 42, (1E,Z)-4-(4-amino-2-butyl-1H-imidazo[4,5-c]quinolin-1-yl)butanal O-methyloxime] | 153 to 155 °C
CCCc1nc2c(N)nc3ccccc3c2n1CCCC(C)N(OC)C(=O)Nc1ccccc1 (stereo not shown) [Example 11, 1-[4-(4-Amino-2-propyl-1H-imidazo[4,5-c]quinolin-1-yl)-1-methylbutyl]-1-methoxy-3-phenylurea] | 140 to 142 °C
CCCc1nc2c(N)nc3cc(-c4ccccc4)ccc3c2n1CCCC(C)=NOC [Example 17, 5-(4-Amino-7-phenyl-2-propyl-1H-imidazo[4,5-c]quinolin-1-yl)pentan-2-one O-methyloxime] | 191 to 192 °C
CCCc1nc2c(N)nc3ccccc3c2n1CCCCN(OC)C(=O)Nc1ccccc1 [Example 9] | 164 to 166 °C
CCCc1nc2c(N)nc3ccccc3c2n1CCCC(C)N(OC)C(=O)NC1CCCC1 (stereo not shown) [Example 16, 1-[4-(4-Amino-2-propyl-1H-imidazo[4,5-c]quinolin-1-yl)-1-methylbutyl]-N-methoxy-3-cyclopentylurea] | 182 to 184 °C
CON=C(C)CC(C)(C)Cn1c(C)nc2c(N)nc3ccccc3c21 [Example 39, 5-(4-Amino-2-methyl-1H-imidazo[4,5-c]quinolin-1-yl)-4,4-dimethylpentan-2-one O-methyl-oxime] | 193 to 195 °C
CON=C(C)CCCn1c(C)nc2c(N)nc3ccccc3c21 [Example 32, 5-(4-Amino-2-methyl-1H-imidazo[4,5-c]quinolin-1-yl)pentan-2-one O-methyloxime] | 158 to 161 °C
CCCc1nc2c(N)nc3ccccc3c2n1CCCCN(OC)S(C)(=O)=O [Example 8, N-[4-(4-Amino-2-propyl-1H-imidazo[4,5-c]quinolin-1-yl)butyl]-N-methoxymethanesulfonamide] | 178 to 188 °C
CCc1nc2c(N)nc3ccccc3c2n1CCCNOC [Example 51, N-[3-(4-Amino-2-ethyl-1H-imidazo[4,5-c]quinolin-1-yl)propyl]-O-methylhydroxylamine] | 210 to 213 °C
CCCc1nc2c(N)nc3ccccc3c2n1CCCC(CC(C)C)=NO [Example 37, 1-(4-Amino-2-propyl-1H-imidazo[4,5-c]quinolin-1-yl)-6-methylheptan-4-one oxime] | 207 to 209 °C
CCCCc1nc2c(N)nc3cccnc3c2n1CCC/C(C)=N/OC [Example 4, 5-(4-Amino-2-butyl-1H-imidazo[4,5-c][1,5]naphthyridin-1-yl)-pentan-2-one O-methyloxine] | 132 to 134 °C
CCCc1nc2c(N)nc3cccnc3c2n1CCCCN(OC)C(=O)Nc1ccccc1 [Example 19, N-[4-(4-Amino-2-propyl-1H-imidazo[4,5-c][1,5]naphthyridin-1-yl)butyl]-N-methoxy-N′-phenylurea] | 155 to 156 °C
CCCc1nc2c(N)nc(C)c(C)c2n1CCCCN(O)C(=O)NC(C)C [Example 23, 1-[4-(4-Amino-6,7-dimethyl-2-propyl-1H-imidazo[4,5-c]pyridin-1-yl)butyl]-1-hydroxy-3-isopropylurea] | 138.5 to 140 °C
CON(CCCCn1c(C)nc2c(N)nc3ccccc3c21)C(N)=O [Example 46, N-[4-(4-Amino-2-methyl-1H-imidazo[4,5-c]quinolin-1-yl)butyl]-N-methoxyurea] | 158 to 160 °C
CCOCc1nc2c(N)nc3ccccc3c2n1CCCC(C)=NOC (as salt: hydrochloride) [Example 35, 5-(4-Amino-2-ethoxymethyl-1H-imidazo[4,5-c]quinolin-1-yl)pentan-2-one O-methyloxime hydrochloride] | 189 to 192 °C
CCCc1nc2c(N)nc3cccnc3c2n1CCCCN(OC)C(C)=O [Example 1, N-[4-(4-Amino-2-propyl-1H-imidazo[4,5-c]-1,5-naphthyridin-1-yl)butyl]-N-methoxyacetamide] | 155 to 156 °C
CCCc1nc2c(N)nc3ccccc3c2n1CCCC(C)N(OC)C(C)=O (stereo not shown) [Example 10, N-[4-(4-Amino-2-propyl-1H-imidazo[4,5-c]quinolin-1-yl)-1-methylbutyl]-N-methoxy-acetamide] | 140 to 142 °C
CCCc1nc2c(N)nc3c(c2n1CCCCN(O)C(=O)NC(C)C)CCCC3 [Example 50, N-[4-(4-Amino-2-propyl-6,7,8,9-tetrahydro-1H-imidazo[4,5-c]quinolin-1-yl)butyl]-N-hydroxy-N′-isopropylurea] | 178 to 180 °C
CCCCc1nc2c(N)nc3ccccc3c2n1CCCC(C)=NOC [Example 33, 5-(4-Amino-2-butyl-1H-imidazo[4,5-c]quinolin-1-yl)pentan-2-one O-methyloxime] | 157 to 159 °C
